# In patent US8822449B2, “Substituted aminoindanes and analogs thereof, and the pharmaceutical use thereof” (Sanofi, priority 2008, dated 2014):
# Target: T1, sodium-proton exchanger of subtype 3 (NHE3) (Homo sapiens, UniProt P48764)
# T1 construct: expressed in transfected cells
# T1 sequence (P48764 26-834): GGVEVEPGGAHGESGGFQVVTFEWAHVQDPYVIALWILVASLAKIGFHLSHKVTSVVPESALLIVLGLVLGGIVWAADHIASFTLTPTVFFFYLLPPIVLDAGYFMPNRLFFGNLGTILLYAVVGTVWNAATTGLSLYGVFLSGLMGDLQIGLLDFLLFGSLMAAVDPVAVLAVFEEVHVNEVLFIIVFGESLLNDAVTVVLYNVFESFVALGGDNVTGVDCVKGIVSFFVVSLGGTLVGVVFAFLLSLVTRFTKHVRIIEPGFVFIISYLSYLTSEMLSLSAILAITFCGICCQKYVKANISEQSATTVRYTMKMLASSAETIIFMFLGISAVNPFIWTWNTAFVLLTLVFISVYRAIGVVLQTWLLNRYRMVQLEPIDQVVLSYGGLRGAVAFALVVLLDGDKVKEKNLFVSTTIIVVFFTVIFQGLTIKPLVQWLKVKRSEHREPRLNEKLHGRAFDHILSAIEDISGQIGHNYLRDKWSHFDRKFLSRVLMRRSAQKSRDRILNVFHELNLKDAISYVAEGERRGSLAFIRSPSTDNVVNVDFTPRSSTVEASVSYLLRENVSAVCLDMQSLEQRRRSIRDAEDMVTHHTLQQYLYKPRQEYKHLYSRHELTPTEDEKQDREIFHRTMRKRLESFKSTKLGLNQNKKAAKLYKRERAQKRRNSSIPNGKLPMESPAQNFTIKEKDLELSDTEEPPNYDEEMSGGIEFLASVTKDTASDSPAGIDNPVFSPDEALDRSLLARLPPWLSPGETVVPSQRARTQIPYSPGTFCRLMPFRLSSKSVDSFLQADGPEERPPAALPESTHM
# Assay: Recovery of intracellular pH (pHi) after acidification in LAP1 cells stably expressing NHE3 (BCECF fluorescence, FLIPR)
# Assay type: cell-based
# Conditions: LAP1 cells stably expressing NHE3; pH recovery after acidification; range 1 is % inhibition at 10 μM; read-out: Activity range (inhibitory effect on NHE3)
Compound,IC50,inhibition at 10 µM
"N[C@@H]1CCCN([C@H]2CCc3ccccc3[C@@H]2Oc2cccc3[nH]nnc23)C1 (racemic) [Example 29, (R)-1-[rac-trans-(1,2)-1-(1H-benzotriazol-4-yloxy)-1,2,3,4-tetrahydronaphthalen-2-yl]piperidin-3-ylamine]",1000 to 10000 nM,
"NS(=O)(=O)c1ccc(O[C@H]2c3cc(Cl)cc(Cl)c3C[C@@H]2N2CC[C@@H](O)C2)cc1 [Example 743, 4-[trans-(1S,2S)-4,6-Dichloro-2-((R)-3-hydroxy-pyrrolidin-1-yl)-indan-1-yloxy]-benzenesulfonamide]",< 1000 nM,
"Cc1cc(O[C@@H]2c3ccccc3C[C@H]2N2C[C@H]3CNC[C@H]3C2)cc(C)c1C#N (racemic) [Example 505, 4-[rac-trans-(1,2)-2-(Hexahydropyrrolo[3,4-c]pyrrol-2-yl)indan-1-yloxy]-2,6-dimethylbenzonitrile]",1000 to 10000 nM,
"CS(=O)(=O)c1cc(Cl)c(O[C@H]2c3ccccc3C[C@@H]2N2CCCC2)c(Cl)c1 (racemic) [Example 264, 1-[rac-trans-(1,2)-1-(2,6-dichloro-4-methanesulfonylphenoxy)indan-2-yl]pyrrolidine]",1000 to 10000 nM,
"CC(=O)NCc1cccc(O[C@H]2c3ccccc3C[C@@H]2N2CCCC2)c1 (racemic) [Example 640, N-[3-(rac-trans-(1,2)-2-pyrrolidin-1-ylindan-1-yloxy)benzyl]acetamide]",< 1000 nM,
"N[C@H]1CCCN([C@H]2CCc3ccccc3[C@@H]2Oc2cc(F)cc(Cl)c2)C1 (racemic) [Example 162, (S)-1-[rac-trans-(1,2)-1-(3-chloro-5-fluorophenoxy)-1,2,3,4-tetrahydronaphthalen-2-yl]piperidin-3-ylamine]",,20 to 50%
